{"source": "patent US20260325485A1", "about": "“COMPOSITIONS AND METHODS FOR TREATING PANCREATITIS” (The United States Government as represented by the …, priority 2022, published 2026)", "key": {"pancreas": {"system": "pancreas", "assay": "Drug treatment of Gnptab−/− mice: pancreatic total cholesterol", "format": "in vivo, mouse", "experimental": "12-week-old Gnptab−/− mice were subjected to daily i.p. injections of 20 mg/kg simvastatin or the same dose of T0901317 for 4 or 21 days.\nTotal cholesterol content was measured with Cholesterol Assay kit per manufacturer's instructions. Samples of mouse pancreas and liver, cell pellet homogenates, subcellular fractions, isolated mitochondria, and serum were diluted in the reaction buffer containing cholesterol probe and incubated at 37° C. for 1 h in the dark. To measure total cholesterol, the samples were subjected to digestion with cholesterol esterase. To measure non-esterified cholesterol, the esterase was omitted from the assay."}, "CER/CCK-AP": {"system": "CER/CCK-AP", "assay": "Effect of simvastatin and BemA in CER/CCK-AP (mouse and ex-vivo model)", "experimental": "FIGS. 25A-25C show reducing cholesterol overload greatly ameliorates experimental pancreatitis. CER-AP responses were measured in (A) AclyAac or (C) WT mice treated with simvastatin or bempedoic acid (BemA). (B) Acinar cells were transfected with ACLA (or mock) siRNA and subjected to ex-vivo CCK-AP. Each symbol represents an individual mouse or cell preparation. Values are mean±SE. **p<0.01, ***p<0.001 vs saline treated control mice (or mock transfection); #p<0.05, ##p<0.01, ###p<0.001 vs CER/CCK-AP in control mice (i.e. without inhibitors) or cells.\nFIGS. 26A-26D preventing cholesterol overload ameliorates ex-vivo pancreatitis. Mouse pancreatic acinar cells were incubated (A, B) with simvastatin (4 μM, 3 h) or (C, D) cholesterol chelator, methyl-β-cyclodextrin (MCD; 10 mM, 1 h) and then subjected to CCK-AP for 1 (D) or 3 h (A, B). Cholesterol content (A, C) necrosis (B), and trypsin activity (D) were measured. Each symbol represents an individual cell preparation. Values are mean±SEM*p<0/05, **p<0.01 vs control; #p<0.05 ##p<0.01; vs CCK, no inhibitor.\nCholesterol metabolism is disrupted in pancreatitis as a result of lysosomal/autophagy dysfunction. Preventing acinar cell cholesterol overload with simvastatin alleviates AP in one experimental model (CER-AP). As discussed above, lysosomal/autophagy dysfunction is associated with both experimental and human pancreatitis.^6, 7, 9, 13, 17 However, until a recent publication^13 there was very little known on cholesterol metabolism in healthy pancreas, its changes in experimental and human pancreatitis, and role in disease severity. Further, effects of statins and other cholesterol-lowering drugs in pancreas, and the underlying mechanisms, have not been explored. […] This, in turn, stimulates a compensatory increase in cholesterol synthesis, further exacerbating cholesterol overload. It was further shown^13 that inhibition of cholesterol synthesis with simvastatin reduced acinar cell cholesterol overload and the severity of pancreatitis induced with supramaximal cerulein (CER), an ortholog of the hormone cholecystokinin-8 (CCK). The findings^13 reveal a previously unrecognized pathogenic role of cholesterol dysregulation in pancreatitis and indicate normalizing cholesterol metabolism as a novel therapeutic approach for disease treatment.\nIn summary, the published^13 and current data (FIGS. 23-26) reveal that disruption of acinar cell cholesterol metabolism is a common feature in models of experimental pancreatitis and also prominent in human disease. The key manifestation of cholesterol dyshomeostasis in pancreatitis is acinar cell cholesterol overload. […]"}}, "note": "“Also recorded” adds a separate entry of the source.", "data": [{"smiles": "CCC(C)(C)C(=O)O[C@H]1C[C@@H](C)C=C2C=C[C@H](C)[C@H](CC[C@@H]3C[C@@H](O)CC(=O)O3)[C@H]21", "note": "[simvastatin]", "values": [{"measurement": "total cholesterol content in pancreas, Gnptab−/− mice", "setting": "pancreas; 20 mg/kg i.p. daily for 4 or 21 days", "result": "Neither treatment changed"}, {"measurement": "pancreatic total cholesterol, Gnptab−/− mice", "setting": "pancreas; even for 3 weeks", "result": "failed to decrease"}, {"measurement": "cholesterol overload, CER/CCK-AP", "setting": "CER/CCK-AP", "result": "reduced; also recorded: prevented"}, {"measurement": "disease severity, CER/CCK-AP", "setting": "CER/CCK-AP", "result": "reduced"}]}]}
